{"source": "patent US20130296434A1", "about": "“FORMULATIONS AND METHODS FOR TREATING AMYLOIDOSIS” (Kiacta Sarl, priority 2005, published 2013)", "key": {"[1]": {"experiment": "Pharmacokinetics of single rising oral doses of PDS and food effect in healthy male subjects", "assay_type": "in vivo, human", "conditions": "for AUC(0-inf) / AUC(0-t) / Cmax / Tmax: male, po; for AUC(0-inf) / AUC(0-t) / Cmax: mean; for Tmax: median", "source_text": "(§1) In the following examples, terms are as defined below. The pharmacokinetic parameters were derived by non-compartmental analysis using WinNonlin® (Pharsight Corp., Mountain View, Calif., USA). • Cmax—the maximum observed plasma concentration. • Tmax—the time of occurrence of Cmax. • AUC0-t—the area under the plasma concentration versus time curve from time zero to the last sampling time at which concentrations were at or above the limit of quantification, calculated by the linear trapezoidal rule. • AUC∞—the area under the plasma concentrations versus time curve from time zero to infinity, calculated from AUC0-t+(Clast/λz), where Clast is the last observed quantifiable concentration and λz is the apparent terminal rate constant. • t1/2 the apparent terminal half-life, calculated from ln 2/λz\nThe safety, tolerability and pharmacokinetics of PDS following single oral administration in healthy male adult volunteers is determined. The effect of food on the pharmacokinetics of PDS is also determined. The first part of the study is a randomized, double-blind, placebo-controlled study to assess the pharmacokinetic profile of 6 single rising oral doses of PDS in healthy male subjects. The second part of this study is an open-label, two-way crossover study to investigate the effect of food on the pharmacokinetic profile of a single oral dose of PDS under fasted and fed conditions. Blood samples are collected during 36 hours following dosing. Plasma concentrations of PDS are determined using validated HPLC methods. […] The extent of systemic exposure (AUC and Cmax) to PDS increases with increasing dose. […] PDS should therefore not be given concomitantly with a high fat meal."}, "[2]": {"experiment": "Pharmacokinetics of single and repeated oral doses of PDS in healthy male subjects", "assay_type": "in vivo, human", "conditions": "for AUC(0-t) / Cmax / Tmax: male, po, n = 6; for AUC(0-t) / Cmax: mean; for Tmax: median", "source_text": "as §1\nThe safety, tolerability and pharmacokinetics of PDS following multiple rising oral doses in healthy male adult volunteers is determined. This is a randomized, double-blind, placebo-controlled study to assess the pharmacokinetic profile of single and repeated oral doses of PDS at 400, 800 and 1600 mg in healthy male subjects. PDS is administered as a single oral dose to healthy male subjects at 400, 800 and 1600 mg on Days 1 and 7. Following the single oral administration on Day 1, PDS is administered on Days 2, 3, 4, 5 and 6 at 400, 800 and 1600 mg four times daily, or 1600 mg three times daily. Blood samples are collected through 24 hours after the dose on Day 1, before the first and last doses on Days 2 through 6, and after 48 hours after the final dose on Day 7. Plasma concentrations of PDS are determined using validated HPLC methods. Following single and repeated oral doses of PDS maximum plasma concentrations are generally reached within 0.25 to 1 hour post-dose. The mean half-life (T1/2) ranges from 5 to 20 hours after single or multiple dosing. Accumulation after multiple dosing is consistent with the T1/2 and dosing frequency."}, "[3]": {"conditions": "human, plasma, 100 mg, single oral 100 mg, healthy male subjects, n = 6"}, "[4]": {"conditions": "human, plasma, 200 mg, single oral 200 mg, healthy male subjects, n = 5"}, "[5]": {"conditions": "human, plasma, 400 mg, single oral 400 mg, healthy male subjects, n = 5"}, "[6]": {"conditions": "human, plasma, 800 mg, single oral 800 mg, healthy male subjects, n = 10"}, "[7]": {"conditions": "human, plasma, 1600 mg, single oral 1600 mg (rising dose part), healthy male subjects, n = 5"}, "[8]": {"conditions": "human, plasma, 1600 mg, single oral 1600 mg, Fasted, healthy male subjects, n = 8"}, "[9]": {"conditions": "human, plasma, 1600 mg, single oral 1600 mg, Fed (high-fat meal), healthy male subjects, n = 8"}, "[10]": {"conditions": "human, plasma, 2400 mg, single oral 2400 mg, healthy male subjects, n = 5"}, "[11]": {"conditions": "human, plasma, 400 mg, 400 mg q.i.d. group, Day 1 (single oral administration)"}, "[12]": {"conditions": "human, plasma, 400 mg, 400 mg q.i.d., Day 7 (repeated oral administration)"}, "[13]": {"conditions": "human, plasma, 800 mg, 800 mg q.i.d. group, Day 1 (single oral administration)"}, "[14]": {"conditions": "human, plasma, 800 mg, 800 mg q.i.d., Day 7 (repeated oral administration)"}, "[15]": {"conditions": "human, plasma, 1600 mg, 1600 mg q.i.d group, Day 1 (single oral administration)"}, "[16]": {"conditions": "human, plasma, 1600 mg, 1600 mg q.i.d, Day 7 (repeated oral administration)"}, "[17]": {"conditions": "human, plasma, 1600 mg, 1600 mg t.i.d. group, Day 1 (single oral administration)"}, "[18]": {"conditions": "human, plasma, 1600 mg, 1600 mg t.i.d., Day 7 (repeated oral administration)"}}}
{"smiles": "O=S(=O)([O-])CCCS(=O)(=O)[O-].[Na+].[Na+]", "note": "[PDS, 1,3-propanedisulfonic acid, disodium salt]", "values": [{"measurement": "half-life", "setting": "[1]; human, plasma, single oral doses 100-2400 mg, healthy male subjects, range of means, read-out: mean half-life (T1/2)", "result": "120 to 1560", "unit": "min"}, {"measurement": "AUC(0-inf)", "setting": "[1]; [3]", "result": 419, "unit": "ng·h/mL"}, {"measurement": "AUC(0-t)", "setting": "[1]; [3]", "result": 240, "unit": "ng·h/mL"}, {"measurement": "Cmax", "setting": "[1]; [3]", "result": 99.5, "unit": "ng/mL"}, {"measurement": "Tmax", "setting": "[1]; [3]", "result": 60, "unit": "min"}, {"measurement": "AUC(0-t)", "setting": "[1]; [4]", "result": 626, "unit": "ng·h/mL"}, {"measurement": "Cmax", "setting": "[1]; [4]", "result": 164, "unit": "ng/mL"}, {"measurement": "Tmax", "setting": "[1]; [4]", "result": 60, "unit": "min"}, {"measurement": "AUC(0-inf)", "setting": "[1]; [5]", "result": 2900, "unit": "ng·h/mL"}, {"measurement": "AUC(0-t)", "setting": "[1]; [5]", "result": 1880, "unit": "ng·h/mL"}, {"measurement": "Cmax", "setting": "[1]; [5]", "result": 1080, "unit": "ng/mL"}, {"measurement": "Tmax", "setting": "[1]; [5]", "result": 30, "unit": "min"}, {"measurement": "AUC(0-inf)", "setting": "[1]; [6]", "result": 4550, "unit": "ng·h/mL"}, {"measurement": "AUC(0-t)", "setting": "[1]; [6]", "result": 4840, "unit": "ng·h/mL"}, {"measurement": "Cmax", "setting": "[1]; [6]", "result": 2870, "unit": "ng/mL"}, {"measurement": "Tmax", "setting": "[1]; [6]", "result": 30, "unit": "min"}, {"measurement": "AUC(0-t)", "setting": "[1]; [7]", "result": 8410, "unit": "ng·h/mL"}, {"measurement": "Cmax", "setting": "[1]; [7]", "result": 4760, "unit": "ng/mL"}, {"measurement": "Tmax", "setting": "[1]; [7]", "result": 30, "unit": "min"}, {"measurement": "AUC(0-inf)", "setting": "[1]; [8]", "result": 12800, "unit": "ng·h/mL"}, {"measurement": "AUC(0-t)", "setting": "[1]; [8]", "result": 11500, "unit": "ng·h/mL"}, {"measurement": "Cmax", "setting": "[1]; [8]", "result": 6460, "unit": "ng/mL"}, {"measurement": "Tmax", "setting": "[1]; [8]", "result": 30, "unit": "min"}, {"measurement": "AUC(0-inf)", "setting": "[1]; [9]", "result": 6320, "unit": "ng·h/mL"}, {"measurement": "AUC(0-t)", "setting": "[1]; [9]", "result": 4010, "unit": "ng·h/mL"}, {"measurement": "Cmax", "setting": "[1]; [9]", "result": 563, "unit": "ng/mL"}, {"measurement": "Tmax", "setting": "[1]; [9]", "result": 135, "unit": "min"}, {"measurement": "AUC(0-inf)", "setting": "[1]; [10]", "result": 12900, "unit": "ng·h/mL"}, {"measurement": "AUC(0-t)", "setting": "[1]; [10]", "result": 12000, "unit": "ng·h/mL"}, {"measurement": "Cmax", "setting": "[1]; [10]", "result": 6050, "unit": "ng/mL"}, {"measurement": "Tmax", "setting": "[1]; [10]", "result": 30, "unit": "min"}, {"measurement": "effect of food on systemic availability", "setting": "[1]; single oral 1600 mg, fed vs fasted conditions", "result": "decrease in both the rate and extent of systemic availability"}, {"measurement": "dose dependence of systemic exposure (AUC and Cmax)", "setting": "[1]; single oral doses 100-2400 mg, healthy male subjects", "result": "reasonably proportional to the administered dose"}, {"measurement": "half-life", "setting": "[2]; human, plasma, oral, after single or multiple dosing, 400, 800, 1600 mg, healthy male subjects, range of means, read-out: mean half-life (T1/2)", "result": "300 to 1200", "unit": "min"}, {"measurement": "AUC(0-t)", "setting": "[2]; [11]", "result": 1590, "unit": "ng·h/mL"}, {"measurement": "Cmax", "setting": "[2]; [11]", "result": 496, "unit": "ng/mL"}, {"measurement": "Tmax", "setting": "[2]; [11]", "result": 60, "unit": "min"}, {"measurement": "AUC(0-t)", "setting": "[2]; [12]", "result": 10500, "unit": "ng·h/mL"}, {"measurement": "Cmax", "setting": "[2]; [12]", "result": 995, "unit": "ng/mL"}, {"measurement": "Tmax", "setting": "[2]; [12]", "result": 15, "unit": "min"}, {"measurement": "AUC(0-t)", "setting": "[2]; [13]", "result": 5180, "unit": "ng·h/mL"}, {"measurement": "Cmax", "setting": "[2]; [13]", "result": 2680, "unit": "ng/mL"}, {"measurement": "Tmax", "setting": "[2]; [13]", "result": 15, "unit": "min"}, {"measurement": "AUC(0-t)", "setting": "[2]; [14]", "result": 19900, "unit": "ng·h/mL"}, {"measurement": "Cmax", "setting": "[2]; [14]", "result": 1680, "unit": "ng/mL"}, {"measurement": "Tmax", "setting": "[2]; [14]", "result": 15, "unit": "min"}, {"measurement": "AUC(0-t)", "setting": "[2]; [15]", "result": 8300, "unit": "ng·h/mL"}, {"measurement": "Cmax", "setting": "[2]; [15]", "result": 2800, "unit": "ng/mL"}, {"measurement": "Tmax", "setting": "[2]; [15]", "result": 30, "unit": "min"}, {"measurement": "AUC(0-t)", "setting": "[2]; [16]", "result": 24500, "unit": "ng·h/mL"}, {"measurement": "Cmax", "setting": "[2]; [16]", "result": 5480, "unit": "ng/mL"}, {"measurement": "Tmax", "setting": "[2]; [16]", "result": 15, "unit": "min"}, {"measurement": "AUC(0-t)", "setting": "[2]; [17]", "result": 7090, "unit": "ng·h/mL"}, {"measurement": "Cmax", "setting": "[2]; [17]", "result": 2890, "unit": "ng/mL"}, {"measurement": "Tmax", "setting": "[2]; [17]", "result": 22.5, "unit": "min"}, {"measurement": "AUC(0-t)", "setting": "[2]; [18]", "result": 25800, "unit": "ng·h/mL"}, {"measurement": "Cmax", "setting": "[2]; [18]", "result": 4890, "unit": "ng/mL"}, {"measurement": "Tmax", "setting": "[2]; [18]", "result": 30, "unit": "min"}, {"measurement": "dose dependence of systemic exposure (AUC0-t and Cmax)", "setting": "[2]; single and repeated oral doses 400, 800, 1600 mg, healthy male subjects", "result": "approximately proportional to the administered dose"}]}
